Test results reported in PMC9241669, “Allantodapsone is a Pan-Inhibitor of Staphylococcus aureus Adhesion to Fibrinogen, Loricrin, and Cytokeratin 10” (Microbiology Spectrum, 2022).
“And” between values parts separate entries of the source, which are not always exact repeats. Equal values may be shown once.

Columns and labels:
L. lactis ClfA = assay: Adhesion of L. lactis ClfA to immobilized fibrinogen; type: cell-based, Lactococcus lactis
Experimental: (§1) FIG 1 Allantodapsone inhibits S. aureus Newman adhesion to fibrinogen. Dose response curves for S. aureus Newman (A), L. lactis ClfA (B), and L. lactis ClfB (C) adhesion to fibrinogen. Fibrinogen was used to coat plates at 4°C overnight at 10 μg/mL. Wells were washed with PBS and blocked with 1% BSA. Washed bacteria (OD600 of 1) were mixed with the relevant concentration of allantodapsone or vehicle control (DMSO) for 5 min, and added to the wells, incubating for 2 h at 37°C. Adherent cells were washed, fixed, and stained with crystal violet, and wells further washed. The dye was dissolved in acetic acid and the absorbance measured at 570 nm. IC50 values were generated using GraphPad Prism 9.0 GraphPad software, San Diego, CA. Data are representative of three experiments with error presented as SEM.
(§2) Adhesion assays were carried out according to Hartford et al. ([37]). Briefly, plates were coated with 10 μg/mL fibrinogen (Calbiochem, Darmstadt, Germany) or 20 μg/mL fibronectin (Sigma-Aldrich, Ireland) for 2 h at 37°C or for 16 h at 4°C. Plates were blocked with 1% BSA at 37°C for 1 h and washed 3 times in PBS. Washed bacteria were incubated at 37°C for 2 h. […] Plates were read at 570 nm on a Wallac Victor2, (Shelton, CT, USA). The minimum adhesion inhibitory concentration (MAIC) was determined as the concentration inhibiting greater than 90% bacterial adhesion. […]

L. lactis ClfB = assay: Adhesion of L. lactis ClfB to immobilized fibrinogen; type: cell-based, Lactococcus lactis
Experimental: as §1, §2

S. aureus Newman [1] = assay: Antimicrobial assay (bacterial growth in BHI broth); type: cell-based, Staphylococcus aureus; settings: overnight in BHI broth, allantodapsone up to 100 μM, versus vehicle control
Experimental: S. aureus was grown in BHI broth shaking overnight at 37°C in the presence of a range of concentrations of allantodapsone, dapsone, or ampicillin as control. Absorbance was measured the following day at 570 nm. Data have been normalized to the relevant vehicle control (1% DMSO for allantodapsone and dapsone and water for ampicillin). […] Error bars represent SEM.
S. aureus was grown overnight in BHI broth at 37°C in shaking incubator. Wells were inoculated with 10 μL of overnight culture into 90 μL of broth containing the test compounds or controls. A growth control containing no agents was used (positive control), a sterility control of broth alone was included, and vehicle controls were included for each test compound. Plates were incubated overnight at 37°C and absorbance measured at 570 nm the following day using a Wallac Victor2, (Shelton, CT, USA).

S. aureus Newman [2] = assay: Adhesion of S. aureus Newman to cytokeratin 10 (CK10); type: cell-based, Staphylococcus aureus; settings: CK10 10 nM
Experimental: FIG 4 Allantodapsone inhibits S. aureus adhesion to loricrin and cytokeratin 10. Dose-response curve for adhesion of S. aureus Newman to GST-L2v loricrin (A) and CK10 (C). (B) Inhibition of recombinant ClfB N2N3 binding to immobilized GST-L2v loricrin by allantodapsone. (D) Inhibition of S. aureus Newman adhesion to GST-L2v loricrin by allantodapsone derivatives. Purified GST-L2v or CK10 were used to coat plates at 4°C overnight. Wells were washed with PBS and blocked with 1% BSA. Washed bacteria (OD600 of 1) were mixed with allantodapsone or vehicle control before being added to the wells and incubated for 2 h at 37°C. Adherent cells were washed, fixed, and stained with crystal violet, and wells further washed. The dye was dissolved in acetic acid, and the absorbance measured at 570 nm. GST-L2v was used at 20 μM in A and D. CK10 was used at 10 nM. […] Bound ClfB was detected using peroxidase-conjugated anti-His monoclonal antibody in an ELISA. […]
Adhesion assays were carried out according to Hartford et al. ([37]). […] Plates were read at 570 nm on a Wallac Victor2, (Shelton, CT, USA). The minimum adhesion inhibitory concentration (MAIC) was determined as the concentration inhibiting greater than 90% bacterial adhesion.

[3] = tested on: platelet aggregation induced by S. aureus Newman; assay: Platelet aggregation induced by S. aureus Newman in platelet rich plasma; type: cell-based, human; settings: 100 μM allantodapsone, 5 minutes prior to aggregation
Experimental: V. Microbiology: Materials and Methods
The MTT toxicity assay (1) (Vybrant MTT Cell Proliferation Assay, Molecular Probes, Or, USA) was used to measure cytotoxicity. Myeloid lineage, U-937 cells (2) were grown in RPMI-1640 (Gibco) culture medium supplemented with 10% foetal calf serum, 1% L-glutamine and 1% Penicillin/Streptomycin (Gibco). U-937 cells were centrifuged and cells diluted with fresh medium containing 1.2 mM MTT solution to a concentration of (5-6 x 10^6 per mL) and incubated at 37 °C for 2 h. Cells were centrifuged and the pellet dissolved in DMSO. The absorbance was read at 490 nm using the Wallac Victor2, (Shelton, Connecticut, USA).
Platelet aggregation was performed in platelet rich plasma according to O’Brien et al.
S. aureus Newman (stationary phase) was washed and diluted to an OD600 of 2.5.
This was mixed with 10 mg/mL of fibrinogen in 1:1 ratio resulting in a final concentration 5 mg/mL fibrinogen. Fibrinogen -bacteria aggregates clump and settle at the bottom of the tube resulting in a clear solution. These were compared to the turbid bacterial suspension in buffer by visual inspection. […]
of S. aureus Newman was used as an agonist to stimulate platelet aggregation. […] Data was analysed by repeated measures ANOVA followed by a multiple comparison Dunnett’s test. […]

[4] = Lactococcus lactis, read-out: IC50, inhibition of adhesion to fibrinogen

In the case of `Nc1ccc(S(=O)(=O)c2ccc(NCN3C(=O)NC(=O)C(=O)C3=O)cc2)cc1` [Allantodapsone], the “minimum adhesion inhibitory concentration (MAIC)” value (L. lactis ClfA; L. lactis ClfA, fibrinogen) is reported as 10 μM and 4.0 μg/mL, the IC50 (L. lactis ClfA; [4]) is reported as 3.8 µM and the “minimum adhesion inhibitory concentration (MAIC)” value (L. lactis ClfB; L. lactis ClfB, fibrinogen) is reported as 33 μM and 13.3 μg/mL. For the same molecule, the IC50 (L. lactis ClfB; [4]) was 11 µM, the “inhibition of bacterial growth (words)” value (S. aureus Newman [1]) was “does not inhibit bacterial growth” and the “inhibition of bacterial growth (words)” value (S. aureus Newman [1]; listed as allantodapsone) was “no inhibition of bacterial growth”. For the same molecule, the “inhibition of adhesion to CK10” value (S. aureus Newman [2]) was “dose dependent inhibition” and the “inhibition of S. aureus Newman induced platelet aggregation” value [3] was “did not inhibit”.
